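The compound was tested at five concentrations on cells cultured in 96-well plates, with a 48-hour exposure period. TGI: concentration producing complete growth inhibition.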
These compounds were tested on NCI-H522 lung (assay: inhibition of tumour cell growth, NCI panel, 48 h).
Compound `O=C1C=CC(=O)c2c1ccc1c3ccccc3n(CCCCCn3c4ccccc4c4ccc5c(c43)C(=O)C=CC5=O)c21` has a TGI of 4.37 µM. `Cc1ccc(/C=N/Nc2cc(C)c3cccc(C)c3n2)s1` gave a TGI of 16.9 µM. `O=C1C2SC34c5c2c2ccccc2n5CCC3CCCN14` (configuration not stated) showed a TGI greater than 100 µM. Compound `CC(=O)N(C(C)=O)c1ncc(-n2nc(-c3ccccc3)cc2-c2ccccc2)c(-c2ccccc2)n1` has a TGI greater than 10 µM. `CC(=O)Nc1sc(Br)cc1S(=O)(=O)c1ccc(Cl)cc1` gave a TGI of 47.6 µM. Work on `O=C1Sc2cc3ccccc3cc2C(=O)Sc2ccc(Br)cc21` yielded a TGI of 4.52 µM. Work on `O=C(/C=C/c1ccccc1)Oc1cccc(O)c1` yielded a TGI of 29.5 µM. Work on `O=C1c2ccccc2C(=O)c2c(NCC(O)CO)ccc(NCC(O)CO)c21` (configuration not stated) yielded a TGI greater than 100 µM. `COc1cccc(C(=O)Oc2ccc(OS(=O)(=O)c3ccc(C)cc3)cc2)c1C#N` showed a TGI greater than 100 µM. `CC1(C)/C(=N\NC(N)=O)C2CCC1C2` (configuration not stated) was tested, and the TGI was greater than 100 µM. `C/C=C/C(CC(O)(C(F)(F)F)C(F)(F)F)=N/NC(N)=S` gave a TGI greater than 10 µM. For `O=C1/C(=C/c2ccc(Br)s2)NC(=S)N1c1ccccc1`, the TGI was greater than 100 µM. Compound `Fc1ccc2c(c1)nc1n2C(c2c(Cl)cccc2Cl)SC1` (configuration not stated) has a TGI of 28.7 µM. `CC(C)C1=CC23CCC4C(C)(C(=O)O)CCCC4(C)C2CC1C1C(=O)N(c2ccc(Cc4ccc(N5C(=O)C6C7CC8C9(C)CCCC(C)(C(=O)O)C9CCC8(C=C7C(C)C)C6C5=O)cc4)cc2)C(=O)C13` (configuration not stated) gave a TGI of 24.1 µM. `O=C(Nc1ccccc1)c1cc(S(=O)(=O)NC2=NC(c3ccccc3)c3cc(Cl)ccc3N2)c(SSc2cc(Cl)c(C(=O)Nc3ccccc3)cc2S(=O)(=O)NC2=NC(c3ccccc3)c3cc(Cl)ccc3N2)cc1Cl` (configuration not stated) was tested, and the TGI was greater than 100 µM. Work on `CCOC(=O)Nc1[nH]cc(-c2ccccc2)c1C#N` yielded a TGI greater than 100 µM. With `COc1ccc(C2SC(N)=Nc3c2c(C)nn3C(=O)c2ccncc2)cc1OC` (configuration not stated) the TGI was greater than 10 µM. In the case of `O=C1Nc2cccc(Cl)c2/C1=C\c1c(Cl)nc2n1CCS2`, the TGI is reported as greater than 100 µM. `O=C(N/N=C(\c1ccccc1)c1ccccn1)NC1CCCCC1` gave a TGI greater than 100 µM. Compound `C=CCc1cccc2cc(C(=O)NCc3ccccc3)c(=N)oc12` has a TGI of 44.2 µM. `NC(N)=NCCN1CC2CCC(CC2)C1` was tested, and the TGI was greater than 100 µM. `COc1cc(Nc2nc3ccccc3nc2C(=O)O)cc(OC)c1OC` gave a TGI greater than 100 µM. In the case of `COC(=O)c1ccc(/C=C/c2cc(O)ccc2O)cc1`, the TGI is reported as 0.356 µM. For `Cc1c(C)c2c(c(N)c1C#N)C(=O)N(NC(=O)c1ccccc1)C2=O`, the TGI was greater than 100 µM.

Each compound was assayed on CCRF-CEM leukemia (assay: inhibition of tumour cell growth, NCI panel, 48 h).
`O=C1C=CC(=O)c2c1ccc1c3ccccc3n(CCCCCn3c4ccccc4c4ccc5c(c43)C(=O)C=CC5=O)c21` was tested, and the TGI was 6.58 µM. `Cc1ccc(/C=N/Nc2cc(C)c3cccc(C)c3n2)s1` gave a TGI greater than 100 µM. `CC(=O)N(C(C)=O)c1ncc(-n2nc(-c3ccccc3)cc2-c2ccccc2)c(-c2ccccc2)n1` was tested, and the TGI was greater than 10 µM. `CC(=O)Nc1sc(Br)cc1S(=O)(=O)c1ccc(Cl)cc1` gave a TGI greater than 100 µM. In the case of `O=C1Sc2cc3ccccc3cc2C(=O)Sc2ccc(Br)cc21`, the TGI is reported as greater than 19.7 µM. Work on `O=C1c2ccccc2C(=O)c2c(NCC(O)CO)ccc(NCC(O)CO)c21` (configuration not stated) yielded a TGI greater than 100 µM. `COc1cccc(C(=O)Oc2ccc(OS(=O)(=O)c3ccc(C)cc3)cc2)c1C#N` was tested, and the TGI was greater than 100 µM. `CC1(C)/C(=N\NC(N)=O)C2CCC1C2` (configuration not stated) showed a TGI greater than 100 µM. `C/C=C/C(CC(O)(C(F)(F)F)C(F)(F)F)=N/NC(N)=S` was tested, and the TGI was greater than 10 µM. In the case of `O=C1/C(=C/c2ccc(Br)s2)NC(=S)N1c1ccccc1`, the TGI is reported as greater than 100 µM. Compound `CC(C)C1=CC23CCC4C(C)(C(=O)O)CCCC4(C)C2CC1C1C(=O)N(c2ccc(Cc4ccc(N5C(=O)C6C7CC8C9(C)CCCC(C)(C(=O)O)C9CCC8(C=C7C(C)C)C6C5=O)cc4)cc2)C(=O)C13` (configuration not stated) has a TGI of 38.5 µM. `CCOC(=O)Nc1[nH]cc(-c2ccccc2)c1C#N` was tested, and the TGI was greater than 100 µM. `COc1ccc(C2SC(N)=Nc3c2c(C)nn3C(=O)c2ccncc2)cc1OC` (configuration not stated) gave a TGI greater than 10 µM. Work on `COC(=O)c1c(O)ccc2c1c1c(n2Cc2cc(OC)cc(OC)c2)C(=O)c2ccccc2C1` yielded a TGI of 67.5 µM. `O=C1Nc2cccc(Cl)c2/C1=C\c1c(Cl)nc2n1CCS2` showed a TGI greater than 100 µM. For `O=C(N/N=C(\c1ccccc1)c1ccccn1)NC1CCCCC1`, the TGI was greater than 100 µM. Compound `C=CCc1cccc2cc(C(=O)NCc3ccccc3)c(=N)oc12` has a TGI greater than 100 µM. `COc1cc(Nc2nc3ccccc3nc2C(=O)O)cc(OC)c1OC` was tested, and the TGI was greater than 100 µM. For `COC(=O)c1ccc(/C=C/c2cc(O)ccc2O)cc1`, the TGI was 0.719 µM. In the case of `Cc1c(C)c2c(c(N)c1C#N)C(=O)N(NC(=O)c1ccccc1)C2=O`, the TGI is reported as greater than 100 µM. `CC(=O)OC(OC(C)=O)c1ccc2ccc3cccc4ccc1c2c34` showed a TGI greater than 100 µM.

The compounds below were run on OVCAR-4 ovarian (assay: inhibition of tumour cell growth, NCI panel, 48 h).
Compound `Cc1ccc(/C=N/Nc2cc(C)c3cccc(C)c3n2)s1` has a TGI greater than 100 µM. Work on `O=C1C2SC34c5c2c2ccccc2n5CCC3CCCN14` (configuration not stated) yielded a TGI greater than 100 µM. `CC(=O)N(C(C)=O)c1ncc(-n2nc(-c3ccccc3)cc2-c2ccccc2)c(-c2ccccc2)n1` showed a TGI greater than 10 µM. `CC(=O)Nc1sc(Br)cc1S(=O)(=O)c1ccc(Cl)cc1` was tested, and the TGI was 64.5 µM. For `O=C1Sc2cc3ccccc3cc2C(=O)Sc2ccc(Br)cc21`, the TGI was 35.2 µM. `O=C(/C=C/c1ccccc1)Oc1cccc(O)c1` gave a TGI greater than 100 µM. `O=C1c2ccccc2C(=O)c2c(NCC(O)CO)ccc(NCC(O)CO)c21` (configuration not stated) was tested, and the TGI was greater than 100 µM. `COc1cccc(C(=O)Oc2ccc(OS(=O)(=O)c3ccc(C)cc3)cc2)c1C#N` showed a TGI greater than 100 µM. For `CC1(C)/C(=N\NC(N)=O)C2CCC1C2` (configuration not stated), the TGI was greater than 100 µM. `C/C=C/C(CC(O)(C(F)(F)F)C(F)(F)F)=N/NC(N)=S` showed a TGI greater than 10 µM. For `O=C1/C(=C/c2ccc(Br)s2)NC(=S)N1c1ccccc1`, the TGI was greater than 100 µM. With `Fc1ccc2c(c1)nc1n2C(c2c(Cl)cccc2Cl)SC1` (configuration not stated) the TGI was 29.7 µM.

— PubChem BioAssay (NCI)
